Experimental data taken from PubChem BioAssay (NCI).
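96-well plates; 48 h exposure; 5 concentrations. Endpoints by linear interpolation between flanking doses. Not reached: highest tested concentration assigned. TGI marks complete inhibition of growth.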

Columns and labels:
Assay in all cases: NCI tumour cell line growth inhibition, 48 h
[1] = test system: SK-MEL-2 melanoma
[2] = test system: OVCAR-8 ovarian
[3] = test system: T-47D breast
[4] = test system: M14 melanoma
[5] = test system: SR leukemia
[6] = test system: NCI/ADR-RES ovarian
[7] = test system: MDA-MB-231 breast
[8] = test system: HT29 colon
[9] = test system: A498 renal
[10] = test system: RPMI-8226 leukemia
[11] = test system: HOP-92 NSCLC
[12] = test system: HS 578T breast
[13] = test system: KM12 colon
[14] = test system: DU-145 prostate
[15] = test system: IGROV1 ovarian

Row | SMILES | TGI [1] | TGI [2] | TGI [3] | TGI [4] | TGI [5] | TGI [6] | TGI [7] | TGI [8] | TGI [9] | TGI [10] | TGI [11] | TGI [12] | TGI [13] | TGI [14] | TGI [15]
1 | Cc1c(-c2ccccc2)c(C#N)c2nnn(C)c(=O)n12 | > 100 µM | > 100 µM | > 100 µM | > 100 µM | > 100 µM | > 100 µM | > 100 µM | > 100 µM | > 100 µM | > 100 µM | > 100 µM | > 100 µM | > 100 µM | > 100 µM | > 100 µM
2 | N#CCN1CCN(CC#N)CCN(CC#N)CCN(CC#N)CC1 | > 100 µM | > 100 µM | > 100 µM | > 100 µM | > 100 µM | > 100 µM | > 100 µM | > 100 µM | > 100 µM | > 100 µM | > 100 µM | > 100 µM | > 100 µM | > 100 µM | > 100 µM
3 | O=C1CC2(CCNCC2)C(=O)N1N1CCCCC1 | > 100 µM | > 100 µM | > 100 µM | > 100 µM | > 100 µM | > 100 µM | > 100 µM | > 100 µM | > 100 µM | > 100 µM | > 100 µM | > 100 µM | > 100 µM | > 100 µM | > 100 µM
4 | O=C1O/C(=C(/Cl)c2c3ccccc3cc3ccccc23)c2ccccc21 | 51.2 µM | 69.9 µM | > 100 µM | 53.8 µM | 35.6 µM | > 100 µM | 40.3 µM | 43.1 µM | 80.2 µM | 66.4 µM | 50.3 µM | 59.8 µM | 17.3 µM | > 100 µM | 71.2 µM
5 | CN(C)c1cccc(/C=C(\C#N)c2ccccc2)c1 | 47.5 µM | 40 µM | 86.5 µM | > 47.2 µM | > 8.15 µM | 3.5 µM | 53.7 µM | 2.57 µM | 35.4 µM | > 42.8 µM | 39.1 µM | 2.79 µM | 8.92 µM | 33.5 µM | > 72.5 µM
6 | C=C1C(=O)OC2/C=C(\C)CC/C=C(\C)CC(OC(=O)/C(=C/CO)CO)[C@@H]12 (stereo not given in full) | 34.6 µM | 4.07 µM | 15.9 µM | 11.4 µM | > 23.8 µM | 59.6 µM | 28.2 µM | 20.6 µM | 34.6 µM | 5.74 µM | 13.5 µM | 63.4 µM | 35.1 µM | 42.3 µM | 26.1 µM
7 | CC1=NN(C(=O)CC(=O)Nc2ccc(Cl)cc2)C(=O)C1N=Nc1ccc(S(=O)(=O)c2ccc(N=NC3C(=O)N(C(=O)CC(=O)Nc4ccc(Cl)cc4)N=C3C)cc2)cc1 (stereo not given) | > 100 µM | > 100 µM | > 100 µM | > 100 µM | > 100 µM | > 100 µM | > 100 µM | > 100 µM | > 100 µM | > 100 µM | > 100 µM | > 100 µM | > 100 µM | > 100 µM | > 100 µM
8 | CC(=O)[C@]12OC(=O)C3=C1[C@H](CC[C@@H]3C)[C@@H](C)C[C@H]2C=C(C)C | 14.7 µM | 17 µM | 14.4 µM | 16.7 µM | 16.8 µM | 17.7 µM | 15.6 µM | 13.9 µM | 15.1 µM | 15.5 µM | 7.43 µM | 18.1 µM | 14.9 µM | 15.4 µM | 14.2 µM
9 | CC(C)(C)OC(=O)NCC(=O)N(CCc1ccc(Cl)c(Cl)c1)CCN1CCCC1 | 31.3 µM | 35.8 µM | 53.5 µM | 28.6 µM | 32.2 µM | 36.7 µM | 26.6 µM | 23.7 µM | 32.8 µM | 23.8 µM | 19.4 µM | 46.5 µM | 32.6 µM | 32.3 µM | 31.5 µM
10 | COc1cc(/C=C2\CC(C)C/C(=C\c3ccc(O)c(OC)c3)C2=O)ccc1O (stereo not given) | 17.8 µM | 32.4 µM | 4.5 µM | 8.22 µM | > 25.5 µM | > 62.2 µM | 8.35 µM | 20.1 µM | 9.61 µM | > 100 µM | 10.4 µM | 10.4 µM | 3.86 µM | 12.7 µM | 5.88 µM
11 | Nc1ncc(N)c(NCC2(CO)CC(CCc3ccccc3)C2)n1 (stereo not given) | 23 µM | 23.7 µM | 9.82 µM | 24 µM | 13.2 µM | 40.9 µM | 14.8 µM | 20.5 µM | 27.4 µM | 4.78 µM | 11.5 µM | 36.1 µM | 23 µM | 24.2 µM | 22.4 µM
12 | CC(C(=O)O)C1Nc2ccccc2NC1=O (stereo not given) | > 100 µM | > 100 µM | > 100 µM | > 100 µM | > 100 µM | > 100 µM | > 100 µM | > 100 µM | > 100 µM | > 100 µM | > 100 µM | > 100 µM | > 100 µM | > 100 µM | > 100 µM
